Measured values as given in publication PMC7793531 (International Journal of Molecular Sciences, 2020).
Starred links: 1 amine or outer side, 2 acyl side, 3 side chain; linkers in the order of their positions; H or OH if unused. Non-standard residues stand in square brackets, D forms with d. Residues, ends and D or L forms follow the SMILES beside them. Groups on a side chain read outwards from the residue. ξ: configuration not given here. *: point of attachment. Oic(3aξ,7aξ) = O=C(O)[C@@H]1CC2CCCCC2N1; X1 = N=C(N)NCCCC[C@H](N)CN*; Dab = NCC[C@H](N)C(=O)O; CO = O=C([*:1])[*:2]

How the values were obtained:
[1] = target: T1, VEGF-A165/VEGF-R1 complex (Homo sapiens, UniProt P17948); experiment: Competitive ELISA-like assay, VEGF-A165/VEGF-R1 complex formation; format: binding
T1 construct: purchased R&D Systems
From the text: (§1) Amino acid sequence homology for primary structures of NRP-1 and NRP-2 is 44% [81, 82]. Structural studies have shown that both receptors bind VEGF-A165 using a conserved binding pocket core, formed by the b1 subdomain loops. VEGF-A165 interacts also with VEGF-R1 and R2 receptors by different fragments encoded by exons 1–5 [84, 85]. Affinity studies were done using modified ELISA-like assay, performed in the same manner as affinity tests for NRP-1 after optimization of method for individual protein. […] However, this value is more than two times higher compared to VEGF-A165/NRP-1 complex inhibition.
(§2) This method was previously described for NRP-1 [44, 45, 46]. […] Next, 100 µL chemiluminescent substrate was added, and luminescence was quantified using Tecan Infinite F200Pro microplate reader (Männedorf, Switzerland). […] Percentages of inhibition were calculated by the following formula:100% − [[(S − N)/(P − N)]∙100%](1) where S is the signal intensity measured in wells with urea–peptide hybrid. The IC50 of each urea–peptide hybrid was calculated using the nonlinear regression function with GraphPad Prism Version-5.01 (GraphPad Software, San Diego, CA, USA). […]

[2] = In vitro enzymatic stability in human blood serum (LC-SWATH-MS); format: in vitro ADME; conditions: human blood serum (pooled from four healthy persons), 37 °C, after 96 h, read-out: compound still intact
Procedure: Rapid renal clearance and enzymatic degradation are classified as most important disadvantages of peptides as drugs. Covalent linkage to plasma proteins or chemical modifications, including amide bond modifications, might improve their half-lives. We performed proteolytic stability studies in human blood serum to investigate whether the introduction of urea bonds affected the half-lives of compounds from each of synthesized group of hybrids. Compounds 3, 6 and 7 were incubated with human serum at 37 °C. Samples were taken at different time intervals and analyzed using LC-SWATH-MS [88, 89, 90]. […] Hybrids 6 and 7 were stable toward enzymatic degradation, with 50% of each compound still being intact after 96 h (Figure 5). […] Overall, it can be concluded that the substitution of an amide bond with a urea bond has a positive effect on the proteolytic stability of the examined inhibitors.
The study was conducted in full accordance with ethical principles in accordance with the ICH E6 (R2) Guideline for Good Clinical Practice and the Code of Good Customs in Science developed by the Polish Academy of Sciences. Signed consent for using serum was obtained from volunteers. The Rector’s Commission for Ethics of Scientific Research with Human Participation, University of Warsaw, Warsaw, Poland gave the ethical approval (approval number 51/2020). Human blood from four healthy persons was directly drawn into evacuated tubes and left undisturbed at room temperature for 1 h to clot. Tubes were centrifuged at 2500× g for 10 min to prevent possible platelet activation. Serum was pipetted out of the blood collection tubes, pooled and collected in microtubes.
A degradation assay was adapted from a method described previously. Human blood serum was preactivated in Eppendorf ThermoMixer® Comfort (Hamburg, Germany) at 37 °C for 20 min (350 rpm). Next, 20 μL of aqueous urea–peptide hybrid stock solution was added to give ∼750 μg/mL final compound concentration, and incubation was continued. At selected time intervals, 50 μL of the mixture was collected and quenched by adding 200 μL of ACN:H2O:FA mixture (89:10:1, v:v:v). The obtained suspension was vortexed for 1 min (3000 min^−1) and centrifuged for 10 min in 4 °C (11,000× g). 100 μL of supernatant was collected and lyophilized. The samples reconstituted in 1 mL of 10 mM ammonium formate with 0.1% FA were subjected to LC-MS. Relative concentration at time intervals was calculated using peak area of either individual or most intense fragment of compound of interest. Analyst software version 1.7.1 was used for data acquisition, Peak View 2.2 and MultiQuant 2.1 (Sciex, ON) were used for data processing. Detailed analytical data can be found in Supplementary Materials (Figures S17–S45). […]

[3] = target: T2, VEGF-A165/NRP-2 complex (Homo sapiens, UniProt O60462); experiment: Competitive ELISA-like assay, VEGF-A165/NRP-2 complex formation; format: binding; conditions: tested 0.1–10 µM
T2 construct: purchased R&D Systems
T2 sequence (O60462 23-864 limits assumed): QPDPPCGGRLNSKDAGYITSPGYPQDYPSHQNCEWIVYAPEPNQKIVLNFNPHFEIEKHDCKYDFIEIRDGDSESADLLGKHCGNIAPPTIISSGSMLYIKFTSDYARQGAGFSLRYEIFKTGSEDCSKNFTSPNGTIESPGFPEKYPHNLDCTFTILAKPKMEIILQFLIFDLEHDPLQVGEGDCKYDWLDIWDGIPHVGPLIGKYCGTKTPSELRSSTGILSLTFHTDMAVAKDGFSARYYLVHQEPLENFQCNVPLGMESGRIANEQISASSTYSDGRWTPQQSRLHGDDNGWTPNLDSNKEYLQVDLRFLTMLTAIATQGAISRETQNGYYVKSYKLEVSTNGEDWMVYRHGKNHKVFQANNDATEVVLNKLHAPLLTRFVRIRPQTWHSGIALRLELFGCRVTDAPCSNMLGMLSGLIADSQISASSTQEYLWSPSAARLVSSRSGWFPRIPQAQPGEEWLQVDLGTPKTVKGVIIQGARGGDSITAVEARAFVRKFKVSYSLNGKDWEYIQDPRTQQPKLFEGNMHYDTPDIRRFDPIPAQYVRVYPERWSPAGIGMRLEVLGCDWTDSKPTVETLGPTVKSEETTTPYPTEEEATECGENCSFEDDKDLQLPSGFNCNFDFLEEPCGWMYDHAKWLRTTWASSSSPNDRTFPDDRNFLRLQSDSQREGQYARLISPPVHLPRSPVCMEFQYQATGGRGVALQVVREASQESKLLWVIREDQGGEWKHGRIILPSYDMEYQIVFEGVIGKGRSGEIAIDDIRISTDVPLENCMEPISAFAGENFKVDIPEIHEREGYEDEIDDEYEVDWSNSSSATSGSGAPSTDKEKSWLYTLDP
From the text: as §1, §2

T1 sequence (P17948 27-756 limits assumed, one chain of several): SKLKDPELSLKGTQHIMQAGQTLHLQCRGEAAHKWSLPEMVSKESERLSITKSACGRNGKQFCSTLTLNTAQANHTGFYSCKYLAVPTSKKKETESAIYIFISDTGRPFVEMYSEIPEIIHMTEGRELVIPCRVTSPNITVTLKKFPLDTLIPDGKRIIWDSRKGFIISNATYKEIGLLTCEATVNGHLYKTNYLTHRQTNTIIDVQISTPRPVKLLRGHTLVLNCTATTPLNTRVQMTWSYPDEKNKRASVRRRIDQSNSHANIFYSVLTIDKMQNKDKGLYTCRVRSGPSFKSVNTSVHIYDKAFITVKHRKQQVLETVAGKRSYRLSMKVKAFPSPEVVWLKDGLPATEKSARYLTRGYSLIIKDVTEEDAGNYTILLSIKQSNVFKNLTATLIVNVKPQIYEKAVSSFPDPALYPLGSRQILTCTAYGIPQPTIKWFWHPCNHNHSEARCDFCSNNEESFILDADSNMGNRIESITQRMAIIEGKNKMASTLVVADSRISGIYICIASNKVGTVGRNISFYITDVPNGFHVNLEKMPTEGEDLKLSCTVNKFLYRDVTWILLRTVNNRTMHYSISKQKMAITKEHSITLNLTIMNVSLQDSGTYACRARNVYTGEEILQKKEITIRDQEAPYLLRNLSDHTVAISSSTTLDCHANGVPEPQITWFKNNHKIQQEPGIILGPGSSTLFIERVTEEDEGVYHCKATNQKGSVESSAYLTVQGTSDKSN

IC50, VEGF-A165/VEGF-R1 complex formation [1]: no affinity | remaining at 96 h [2]: 50% | IC50 [3]: 0.48 µM
SMILES: N=C(N)NCCCC[C@H](N)CNC(=O)NCC[C@H](N)C(=O)N[C@@H](CCN)C(=O)N1C2CCCCC2C[C@H]1C(=O)N[C@@H](CCCNC(=N)N)C(=O)O (stereo partly drawn) [Compound 6, H-Dab(hArg^U)Dab-Oic-Arg-OH] (H-[Dab]([CO-X1])[Dab][Oic(3aξ,7aξ)]R-OH)
